Patent US10738093B2, “Discovery of cationic nonribosomal peptides as Gram-negative antibiotics through global genome mining” (The Hong Kong University of Science and Technology, priority 2018, dated 2020)
≈ marks a conversion by molar mass, not a printed value. Read-outs that look alike come from different tables or passages of the source. Positions of bridges follow the written chain, without caps; N, C: chain ends. Non-standard residues stand in square brackets, D forms with d. Residues, ends and D or L forms follow the SMILES beside them. *: point of attachment. Octanoyl(7-Me) = CC(C)CCCCCC(=O)*; dOrn = NCCC[C@@H](N)C(=O)O; Orn = NCCC[C@H](N)C(=O)O

Key:
[1] = test system: Escherichia coli ATCC 25922; test: microbe, parasite or virus in culture; type: cell-based
Protocol: (§1) Minimum inhibitory concentration (MIC) was determined by broth microdilution according to CLSI guidelines. The test medium for most species was Mueller-Hinton broth (MHB). Bacteria were grown overnight to early stationary phase and adjusted in MHB to 5.0×10^5 colony-forming units per mL (c.f.u./mL) in the wells of 96-well microtiter plates, mixed with varying concentrations of test compounds and incubated at 37° C. for 24 h. […] MHBs containing 10% fetal bovine serum (Gibco), 21 mM MgCl, or 1.0 mg/ml LPS (lipopolysaccharides from Escherichia coli O55:B5, Sigma-Aldrich) were used to test their inhibitory effects.

[2] = test system: Enterobacter cloacae NRRL-B-413; type: cell-based; details: Enterobacter cloacae NRRL-B-413; for MIC En: Table 2
Protocol: as §1

[3] = test system: Candida albicans; type: cell-based; details: Candida albicans; for MIC Ca: Table 2
Protocol: as §1

[4] = test system: Pseudomonas aeruginosa PAO1; type: cell-based
Protocol: as §1

[5] = test system: Bacillus subtilis 168; type: cell-based; details: for MIC Bs: Table 2, B. subtilis 168
Protocol: as §1

[6] = test system: Acinetobacter baumannii; type: cell-based; details: Acinetobacter baumannii; for MIC Ab: Table 2
Protocol: as §1

[7] = test system: Methicillin-resistant Staphylococcus aureus ATCC 43300; type: cell-based; details: for MIC MRSA: Table 2, Methicillin-resistant Staphylococcus aureus ATCC 43300
Protocol: as §1

[8] = test system: Saccharomyces cerevisiae VL-48; test: MIC, Saccharomyces cerevisiae; type: cell-based; details: for MIC Sc: Table 2, Saccharomyces cerevisiae VL-48
Protocol: as §1

[9] = test system: Escherichia coli ATCC 25922; test: Resistance acquisition during serial passaging; type: cell-based; details: serial passaging at subinhibitory concentrations over 30 days
Protocol: Escherichia coli ATCC 25922 was inoculated into MHB overnight at 37° C. with continuous shaking. Cells were diluted 10,000 times in MHB to about 1×10^6 c.f.u./mL. […] Plates with bacteria were incubated at 37° C. without shaking. […] This process was repeated for 30 d, and the final MIC was confirmed by the same antibacterial assay described above. The experiment was performed in quadruplicate, and on each day, the sample that developed the highest resistance was measured to plot the curve.

[10] = test system: E. coli Top10; type: cell-based, Escherichia coli; details: E. coli Top10
Protocol: as §1

[11] = test system: Colistin-resistant E. coli (E. coli ATCC 25922 carrying mcr-1); type: cell-based, Escherichia coli
Protocol: as §1

[12] = test system: K. pneumoniae NRRL-B-3521; type: cell-based, Klebsiella pneumoniae; details: K. pneumoniae NRRL-B-3521
Protocol: as §1

[13] = LPS binding by isothermal titration calorimetry; parameters: species or system Escherichia coli; details: ITC, FIGS. 18a-18b
Protocol: Microcalorimetric experiments of peptide binding to LPS were performed on an MCS isothermal titration calorimeter (ITC) (Microcal, Northampton, Mass.) at 37° C. LPS was prepared as a 50 μM aqueous suspension in 20 mM HEPES (pH 7.0) buffer by suspension, sonication and temperature cycling between 5° C. and 70° C. This suspension was stored at 4° C. overnight prior to use. 100 μM peptide solutions (brevicidine and polymyxin B) were prepared in the same buffer and all solutions were degassed prior to use by stirring under vacuum for 5 min at 37° C. After thermal equilibration, 5 μL aliquots of the peptide solution were added every 3 min into the lipid-containing cell at 37° C. and stirred constantly. The change in heat during the titration steps was registered in real time and raw data were processed using the Origin® 7 software provided with the instrument. In control experiments, the corresponding peptide solution (or LPS solution) was injected into the buffer without LPS (or without peptide).

[14] = test system: E. coli Top10; test: Time-kill assay; type: cell-based, Escherichia coli; details: 10 times the MIC
Protocol: An overnight culture of E. coli Top10 or Pseudomonas aeruginosa PAO1 cells was diluted 1:10,000 in MHB and incubated at 37° C. with agitation at 180 rpm for 2 h (early exponential). The bacteria were then challenged with antibiotics at 10×MIC, brevicidine (20 μg/ml), laterocidine (20 μg/ml) or polymyxin B (10 μg/ml) at room temperature without shaking. An untreated sample of cells was used as a negative control. At intervals, 10 μL aliquots were removed, centrifuged at 10,000 g for 1 min and resuspended in 1.0 mL of sterile PBS. Tenfold-serially-diluted suspensions were plated on MHB agar plates and incubated at 37° C. overnight. Colonies were counted and the number of c.fu. per mL was calculated. For analysis of lysis, 300 μL of culture (OD600=1.0) were treated with 10×MIC of antibiotics for 24 h. Experiments were performed in triplicate.

[15] = test system: Klebsiella pneumoniae NRRL-B-408; type: cell-based; details: Klebsiella pneumoniae NRRL-B-408
Protocol: as §1

[16] = test system: E. cloacae NRRL-B-425; type: cell-based, Enterobacter cloacae; details: E. cloacae NRRL-B-425
Protocol: as §1

[17] = Table 2, Escherichia coli ATCC 25922
[18] = Table 2, Pseudomonas aeruginosa PAO1
[19] = E. coli ATCC 25922 + LPS (1.0 mg L^−1)
[20] = E. coli ATCC 25922 + Mg^2+ (21 mM)

For `CC[C@H](C)[C@@H]1NC(=O)[C@@H](NC(=O)[C@@H](N)Cc2c[nH]c3ccccc23)[C@@H](C)OC(=O)[C@@H](CO)NC(=O)CNC1=O` [Compound 4] (H-WTIG[dS]; ester 2-C), the “MIC Ec” value [1, 17] was “ND (ND >64 μg/ml)”, the “MIC En” value [2] was “ND (ND >64 μg/ml)” and the “MIC Ca” value [3] was “ND (ND >64 μg/ml)”. For the same compound, the “MIC Pa” value [4, 18] was “ND (ND >64 μg/ml)”, the “MIC Bs” value [5] was “ND (ND >64 μg/ml)” and the “MIC Ab” value [6] was “ND (ND >64 μg/ml)”. For the same compound, the “MIC MRSA” value [7] was “ND (ND >64 μg/ml)” and the “MIC Sc” value [8] was “ND (ND >64 μg/ml)”.

With `NCCC[C@H](N)C(=O)NCC(=O)N[C@H](CCCN)C(=O)O` [Compound 7] (H-[Orn]-Gly-[dOrn]-OH) the “MIC Ec” value [1, 17] was “ND (ND >64 μg/ml)”, the “MIC Pa” value [4, 18] was “ND (ND >64 μg/ml)” and the “MIC Bs” value [5] was “ND (ND >64 μg/ml)”. The “MIC MRSA” value [7] was “ND (ND >64 μg/ml)”.

In the case of `CC[C@H](C)[C@@H]1NC(=O)[C@@H](NC(=O)[C@@H](N)Cc2c[nH]c3ccccc23)[C@@H](C)OC(=O)CNC(=O)CNC(=O)[C@H](CC(N)=O)NC1=O` [Compound 8] (H-WTINGG; ester 2-C), the “MIC Ec” value [1, 17] is reported as “ND (ND >64 μg/ml)”, the “MIC Pa” value [4, 18] is reported as “ND (ND >64 μg/ml)” and the “MIC Bs” value [5] is reported as “ND (ND >64 μg/ml)”. The “MIC MRSA” value [7] was “ND (ND >64 μg/ml)”.

For `CC(C)CCCCCC(=O)N[C@H](CO)C(=O)N[C@H](Cc1ccc(O)cc1)C(=O)N[C@H](Cc1c[nH]c2ccccc12)C(=O)N[C@H](CCCN)C(=O)N[C@@H](CCCN)C(=O)NCC(=O)N[C@H](CCCN)C(=O)O` [Compound 9] ({Octanoyl(7-Me)}-[dS][dY][dW][dOrn][Orn]G[dOrn]-OH), the “MIC Ec” value [1, 17] was “ND (ND >64 μg/ml)”, the “MIC Pa” value [4, 18] was “ND (ND >64 μg/ml)” and the “MIC Bs” value [5] was “ND (ND >64 μg/ml)”. For the same compound, the “MIC MRSA” value [7] was “ND (ND >64 μg/ml)”.

In the case of `CC(C)CCCCCC(=O)N[C@H](CO)C(=O)N[C@H](Cc1ccc(O)cc1)C(=O)N[C@H](Cc1c[nH]c2ccccc12)C(=O)N[C@H](CCCN)C(=O)O` [Compound 10] ({Octanoyl(7-Me)}-[dS][dY][dW][dOrn]-OH), the “MIC Ec” value [1, 17] is reported as “ND (ND >64 μg/ml)”, the “MIC Pa” value [4, 18] is reported as “ND (ND >64 μg/ml)” and the “MIC Bs” value [5] is reported as “ND (ND >64 μg/ml)”. The “MIC MRSA” value [7] was “ND (ND >64 μg/ml)”.

In the case of `CC[C@H](C)[C@H](NC(=O)[C@@H](NC(=O)[C@H](Cc1c[nH]c2ccccc12)NC(=O)[C@@H](CCCN)NC(=O)CNC(=O)[C@@H](CCCN)NC(=O)[C@@H](CCCN)NC(=O)[C@@H](Cc1c[nH]c2ccccc12)NC(=O)[C@@H](Cc1ccc(O)cc1)NC(=O)[C@@H](CO)NC(=O)CCCCCC(C)C)[C@@H](C)O)C(=O)N[C@@H](CC(N)=O)C(=O)NCC(=O)NCC(=O)O` [Compound 11] ({Octanoyl(7-Me)}-[dS][dY][dW][dOrn][dOrn]G[dOrn]WTINGG-OH), the “MIC Ec” value ([1]; ATCC 25922) is reported as 16 µg/mL (≈ 9.86 µM), the “MIC Pa” value ([4]; PAO1) is reported as 8 µg/mL (≈ 4.93 µM) and the “MIC Bs” value [5] is reported as “ND (ND >64 μg/ml)”. The “MIC MRSA” value [7] was “ND (ND >64 μg/ml)”.

`C[C@H]1COc2c(N3CCN(C)CC3)c(F)cc3c(=O)c(C(=O)O)cn1c23` [Levofloxacin, reference compound] gave an MIC ([1]; Escherichia coli, ATCC25922, positive control of the mouse thigh study, read-out: MIC) of 0.032 µg/mL (≈ 0.0886 µM).

In the case of `O=C(O)c1cn(C2CC2)c2cc(N3CCNCC3)c(F)cc2c1=O` [ciprofloxacin, reference compound], the development of resistance [9] is reported as “rapidly developed resistance”.

In the case of colistin [reference compound], the MIC ([1]; E. coli ATCC 25922 + 10% serum) is reported as 2 to 4 µg/mL, the MIC [1, 19] is reported as >64 µg/mL and the MIC [1, 20] is reported as >64 µg/mL. The MIC ([1]; Escherichia coli ATCC 25922) was 2 µg/mL, the MIC [10] was 2 µg/mL and the MIC [11] was 16 µg/mL. The MIC ([4]; Pseudomonas aeruginosa PAO1) was 1 µg/mL.

For polymyxin B [reference compound], the MIC ([1]; E. coli ATCC 25922 + 10% serum) was 1 to 2 µg/mL, the MIC [1, 19] was >64 µg/mL and the MIC [1, 20] was >64 µg/mL. For the same compound, the MIC ([1]; Escherichia coli ATCC 25922) was 1 µg/mL, the “MIC Ec” value [1, 17] was 1 µg/mL and the MIC [12] was 2 µg/mL. For the same compound, the “binding to LPS” value [13] was “strong binding to LPS”, the “time of exposure to significant reduction of viable cells” value [14] was 5 min and the “time to killing all cells” value [14] was ≤ 30 min. It also gave an MIC [10] of 2 µg/mL, an MIC [11] of 16 µg/mL and an MIC [2] of 8 µg/mL. The “MIC En” value [2] was 8 µg/mL, the MIC [3] was >64 µg/mL and the “MIC Ca” value [3] was “ND (ND >64 μg/ml)”. The MIC ([4]; Pseudomonas aeruginosa PAO1) was 1 µg/mL, the “MIC Pa” value [4, 18] was 1 µg/mL and the MIC ([5]; Bacillus subtilis 168) was 4 µg/mL. For the same compound, the “MIC Bs” value [5] was 4 µg/mL, the MIC [15] was 16 µg/mL and the MIC [6] was 4 µg/mL. For the same compound, the “MIC Ab” value [6] was 4 µg/mL, the MIC ([7]; Staphylococcus aureus (MRSA)) was 32 µg/mL and the “MIC MRSA” value [7] was 32 µg/mL. For the same compound, the MIC [16] was 64 µg/mL, the MIC ([8]; Saccharomyces cerevisiae) was >64 µg/mL and the “MIC Sc” value [8] was “ND (ND >64 μg/ml)”.
